Assay: gradient 5% acetonitrile 3 min, to 50% in 2 min, to 85% in 15 min, held 3 min, 100 µL/min
Conditions: column: Zorbax Extend-C18 2.1 x 50 mm; eluents: water / acetonitrile, 0.1% formic acid
Method in brief: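 Values are retention times taken from adduct peaks that software picked and an analyst inspected. The pure standards were run as mixtures of ~100 molecules on HPLC linked to a quadrupole time-of-flight mass spectrometer, in positive and negative ionization mode. A Zorbax Extend-C18 column (2.1 × 50 mm, 1.8 μm) was used at 100 μL/min with water and acetonitrile, each including 0.1% formic acid.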

RP-LC retention time [s]	SMILES
715	COc1ccc(C(=O)N2CCN3CCS(=O)(=O)N(C4CC4)C(=O)C3C2)cc1 (configuration not stated)
718	COc1cccc(C(=O)N2CCC3(CC2)NC(=O)c2ccccc2N3C)c1
654	COc1ccccc1-c1nc2nccc(-c3ccncc3)n2n1
674	COc1ccc(NC(=O)Cn2nc3n(c2=O)CCCC3)cc1Cl
752	CSc1cccc(NC(=O)c2c[nH]c3ncccc23)c1
604	Cn1cnnc1SCC(=O)N1CCc2ccccc21
731	O=C(Nc1ccccc1)C1CCN(C(=O)C2Sc3ccccc3NC2=O)CC1 (configuration not stated)
846	COc1ccc(S(=O)(=O)N2CCc3c(c(CN(C(C)=O)c4ccccc4)nn3C)C2)cc1Cl
632	CCn1cc(CC(=O)NCc2ccc(N3CCOCC3)cc2)c2cccnc21
698	CCc1cccc(NC(=O)c2c(C)oc3c2C2=NC(CC)CN2C=N3)c1 (configuration not stated)
1110	Cc1ccc(S(=O)(=O)N2CCCCC2)cc1-c1nnc(-c2ccc(F)cc2)o1
902	C=C1C(=O)C23CC[C@@H]4C(C)(C(=O)OC)CCCC4(C)[C@@H]2CCC1(O)C3 (some centres not stated)
596	Cc1ccc(C(=O)NCCc2nc3cccnc3n2C)s1
1320	CCOc1ccccc1NC(=O)c1csc2c1CCC(C)C2 (configuration not stated)
824	Cc1ccc(S(=O)(=O)N2CCC(c3nc(C(=O)N4CCOCC4)c(C)o3)CC2)cc1
633	Cc1cccc(C)c1NC(=O)CN1CCCC1
888	COc1ccc(C2CCCN2C(=O)c2cccs2)cc1 (configuration not stated)
733	Cc1ccc(-c2nc(-c3ccnc(N4CCCC4)c3)no2)s1
689	COC(=O)c1cnc2nc(C)ccc2c1Nc1cc(F)ccc1C
741	O=C(NC1CC1)c1ccc(OCC2CCCN2C(=O)c2c(F)cccc2F)cc1 (configuration not stated)
788	CCOC(=O)N1CCC(c2nnc(Cc3ccc(OC)cc3)s2)CC1
930	Cn1nccc1C(=O)NCc1ccc(-c2nc(-c3ccc(F)cc3)no2)s1

RP-LC retention time [s]	SMILES
1150	CCN1C(=O)COc2ccc(-c3nc(NC(=O)c4cccc(Br)c4)sc3C)cc21
1070	Cc1ccc(-c2ccc3nn(Cc4nc(-c5cccc(Br)c5)no4)c(=O)n3n2)cc1
745	O=C(NC1CCCCC1)N1CCN(c2ncccc2-c2nnc(C3CC3)o2)CC1
836	Cc1ccc(Cn2c(=O)n(CCNC(=O)C3CCCC3)c3ncccc32)cc1
874	COc1ccc(-c2nc3cccnc3n2C2CCN(S(=O)(=O)Cc3ccccc3)C2)cc1 (configuration not stated)
736	CCC(=O)N1CCc2cc(C(=O)N3CCN(c4ccc(C(C)=O)cc4)CC3)ccc21
606	Cc1cc(C)cc(NC(=O)Cn2ncc3c(N4CCN(c5ccccn5)CC4)ncnc32)c1
816	COC[C@@H]1CN(C(=O)c2occc2C)C[C@H]1c1nc(C2CC2)no1
699	O=C(NCc1csc(C2CCCN(C(=O)c3ccc(F)cc3F)C2)n1)C1CCC1 (configuration not stated)
715	C[C@@H]1C(=O)O[C@H]2C[C@@]34[C@H]5C[C@@H](C(C)(C)C)[C@]36[C@@H](OC(=O)[C@@H]6O)O[C@@]4(C(=O)O5)[C@]21O
616	CCn1ccc(C(=O)Nc2ccc3ncnc(N4CCCC4)c3c2)n1
1140	Cc1c(Cl)cccc1Nc1c(-c2cccc(Cl)c2)nc2cnccn12
758	CCc1noc(NC(C)=O)c1-c1ccc(C)c(S(=O)(=O)N2CCN(C(=O)c3ccco3)CC2)c1
765	Cc1ccc(C)c(C(=O)N2CCN(c3nc4cccnc4o3)CC2)c1
1060	COc1ccc(-c2nc(C3CC(=O)N(c4ccc(Cl)cc4)C3)no2)cc1 (configuration not stated)
807	COc1cccc(S(=O)(=O)N2CC(F)(F)C[C@H]2CN2CCc3ccccc3C2)c1
616	Cc1nnc2n1CCN(C(=O)Cc1c(F)cccc1Cl)C2
783	CN(C)C(=O)c1csc(S(=O)(=O)N2CCC(C(=O)NC3CCCCCC3)CC2)c1
993	Cc1ccc(F)cc1NS(=O)(=O)c1cn(CC(C)C)c2ncccc12
1000	CC(C)Oc1ccc(CNC(=O)c2nnc(-c3ccc(S(=O)(=O)N4CCCC4)cc3)o2)cc1
909	COc1ccc(-c2cc(C(=O)N3CCN(S(=O)(=O)c4ccc(Cl)cc4)CC3)[nH]n2)cc1
777	O=C(CN1C(=O)COc2ccc(S(=O)(=O)N3CCOCC3)cc21)NCCc1c[nH]c2ccccc12

RP-LC retention time [s]	SMILES
658	COc1cccc(-c2cc(C(=O)N3CCOCC3)[nH]n2)c1
1120	Cc1ccsc1C(=O)Nc1ccccc1Sc1c(C)c(C)nc2nc(-c3ccccc3)nn12
648	COCCCNC(=O)Cn1ccc2c(SCc3ccc(C)cc3)nccc21
710	CS(=O)(=O)c1ccc(CC(=O)Nc2cccc3ccccc23)cc1
1250	COc1cccc(-c2noc(CN3C(=O)COc4ccc(C(C)(C)C)cc43)n2)c1
583	Cc1cnc(C2CCC2)n1CC1CCCN(Cc2cn(C)c3ccccc23)C1 (configuration not stated)
813	CN1C(=O)c2cccc(NC(=O)c3ccc(S(=O)(=O)N4CCOCC4)cc3)c2C1=O
704	CCNC(=O)C1CCCN(c2nc3ncn(CC(=O)Nc4ccc(Cl)cc4)c(=O)c3s2)C1 (configuration not stated)
652	COc1cc(C(C)=O)ccc1OCC(O)CN1CCN(c2ccccc2F)CC1 (configuration not stated)
936	COc1ccc(-c2nnc(-c3nc(N4CCC5(CC4)OCCO5)c4ccccc4n3)o2)cc1
964	COC(=O)c1cc(C)nc2c1c(=O)n(Cc1nc(-c3ccc(OC)c(OC)c3)oc1C)c(=O)n2C
1120	Cn1nccc1-c1cccc(-c2noc(COc3ccc(Cl)cc3)n2)c1
995	COc1ccc(NS(=O)(=O)c2cc(-c3cc(C(F)(F)F)[nH]n3)sc2C)cc1Cl
1050	CCn1cc2c3c(cccc31)CN(C(=O)Nc1ccc(Cl)cc1F)CC2
822	Cc1cc(F)ccc1N1C(=O)CN(S(C)(=O)=O)CC1(C)C(=O)NC1CCCCC1 (configuration not stated)
948	CN(C)S(=O)(=O)c1ccc2nc(NC(=O)c3nc4ccccc4s3)sc2c1
606	COc1cccc(C2CC(c3ccc(Cl)cc3)=NC3(CCN(C)CC3)N2)c1O (configuration not stated)
1010	CCOC(=O)c1cc(S(=O)(=O)N2CCCC2C(=O)Nc2cccc(Br)c2)cn1C (configuration not stated)
564	Cc1cc(C)n(-c2ccc(C(=O)NCc3nc4ccccc4[nH]3)nn2)n1
1070	CCCCN1C(=O)C(C)(C(=O)Nc2ccc(F)c(F)c2)Oc2cccnc21 (configuration not stated)
716	Cc1nnc(N2CCCC(C(=O)NCc3cccc(F)c3)C2)c2nn(-c3ccccc3)c(C)c12 (configuration not stated)
583	COCCN1CCC(N2CCN(S(=O)(=O)c3ccc(OC)c(Cl)c3)CC2)C1=O (configuration not stated)

RP-LC retention time [s]	SMILES
746	O=C(COc1ccccc1)Nc1cnc(N2CCOCC2)nc1
590	CN(C)CCNC(=O)c1cc(N2CCCC2)n2nccc2n1
703	O=C(CNC(=O)Cc1ccc(Cl)cc1)NCc1[nH]nc2ccccc12
962	Cc1nn2c(CNS(=O)(=O)c3ccc(C)c(Cl)c3)c(-c3ccccc3)nc2s1
1190	Cc1sc(-c2cc(C(F)(F)F)[nH]n2)cc1S(=O)(=O)N1CC=C(c2ccccc2)CC1
604	CC(C)NC(=O)N1CCCC(Cn2c(C3CC3)nc3cccnc32)C1 (configuration not stated)
600	CN1CCN(CCNC(=O)CSCc2nc3cccnc3n2C2CCCCC2)CC1
788	Cn1cnc(S(=O)(=O)N2CCC(Oc3ccc(-c4noc(C5CC5)n4)cc3)C2)c1 (configuration not stated)
631	O=C(Nc1cccc(-c2ccn[nH]2)c1)c1ccco1
926	COc1ccc(N2CC(c3nc(-c4ccccc4Cl)no3)CC2=O)cc1 (configuration not stated)
661	COc1ccccc1NC(=O)N1CCN(Cc2nc3cccnc3n2-c2ccccc2)CC1
660	Cc1ccc2c(C(=O)NCc3ccc(F)cc3F)cc(NC(=O)C(C)C)cc2n1
563	NC(C(=O)N[C@@H]1C(=O)N2C(C(=O)O)=C(Cl)CS[C@H]12)c1ccccc1 (some centres not stated)
1340	Cc1ccc(-c2cc3c(=O)n(Cc4nc(-c5ccc(Br)cc5)no4)ncn3n2)c(C)c1
1110	O=C(Cn1cnc2c(sc3nc(-c4ccccc4)ccc32)c1=O)Nc1ccc(Cl)cc1F
1260	CCOc1ccc(-c2cc3c(=O)n(Cc4nc(-c5ccc(OC(C)C)cc5)no4)ncn3n2)cc1
643	CCOC(=O)C1=C(CN2CCN(c3ccccn3)CC2)NC(=O)NC1c1ccc(Cl)cc1 (configuration not stated)
602	c1ccc(-c2nc(-c3ccc4c(c3)nnn4CCN3CCCCC3)no2)nc1
730	COCCN1C(=O)CC[C@]2(C(=O)NCc3ccccc3Cl)CCCC[C@@H]12

SMILES	RP-LC retention time [s]
CC(C)CN1CCN(C(=O)COc2ccc(NC(=O)C3CC3)cn2)CC1	570
CCC(NC(=O)c1cn(C)c2ncccc12)c1cccs1 (configuration not stated)	800
